Measurements from the supplement of paper PMC11061612.

Tests used:
[1] = tested on: COLO-680N (Esophageal Squamous Cell Carcinoma); test: Bliss excess, mean over the matrix (fraction); higher = more synergy
Summary of the method: (§1)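 Bliss excess equals the observed combination effect minus the expected value EA + EB − EA·EB, where EA and EB are the effects of each agent alone. Combination Emax is the second-highest inhibition within the matrix. Inhibition was scaled from CellTiter-Glo 2.0 luminescence, with 0 set by vehicle wells and 1 by blank wells, after 72 hours of two-drug dosing of cells plated in 1536-well plates.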

[2] = tested on: HSC-39 (Gastric Carcinoma); test: as above
Summary of the method: as §1

IST-MES1 (Mesothelioma) = test: as above
Summary of the method: as §1

[3] = tested on: L-1236 (Hodgkin's Lymphoma); test: as above
Summary of the method: as §1

[4] = tested on: MKN45 (Gastric Carcinoma); test: as above
Summary of the method: as §1

NB12 (Neuroblastoma) = test: as above
Summary of the method: as §1

[5] = tested on: NCI-H2342 (Lung Adenocarcinoma); test: as above
Summary of the method: as §1

[6] = tested on: OPM-2 (Plasma Cell Myeloma); test: as above
Summary of the method: as §1

[7] = tested on: OVMIU (Ovarian Carcinoma); test: as above
Summary of the method: as §1

[8] = tested on: PSN1 (Pancreatic Carcinoma); test: as above
Summary of the method: as §1

[9] = tested on: RCM-1 (Colorectal Carcinoma); test: as above
Summary of the method: as §1

[10] = tested on: REH (B-Lymphoblastic Leukemia); test: as above
Summary of the method: as §1

[11] = tested on: RKN (Other Solid Carcinomas); test: as above
Summary of the method: as §1

SF539 (Glioblastoma) [12] = test: as above
Summary of the method: as §1

[13] = tested on: SK-PN-DW (Other Solid Carcinomas); test: as above
Summary of the method: as §1

[14] = tested on: TE-8 (Esophageal Squamous Cell Carcinoma); test: as above
Summary of the method: as §1

[15] = tested on: HSC-39 (Gastric Carcinoma); test: combination Emax (second highest fraction inhibited in the dose matrix, 72 h); higher = more inhibition; extreme values may be limits of the assay
Summary of the method: as §1

[16] = tested on: MFE-280 (Endometrial Carcinoma); test: as above
Summary of the method: as §1

[17] = tested on: PSN1 (Pancreatic Carcinoma); test: as above
Summary of the method: as §1

SF539 (Glioblastoma) [18] = test: as above
Summary of the method: as §1

Row | Compound | Bliss excess [1] | Bliss excess [2] | Bliss excess (IST-MES1 (Mesothelioma)) | Bliss excess [3] | Bliss excess [4] | Bliss excess (NB12 (Neuroblastoma)) | Bliss excess [5] | Bliss excess [6] | Bliss excess [7] | Bliss excess [8] | Bliss excess [9] | Bliss excess [10] | Bliss excess [11] | Bliss excess (SF539 (Glioblastoma) [12]) | Bliss excess [13] | Bliss excess [14] | combination Emax [15] | combination Emax [16] | combination Emax [17] | combination Emax (SF539 (Glioblastoma) [18])
1 | C=CCn1c(=O)c2cnc(Nc3ccc(N4CCN(C)CC4)cc3)nc2n1-c1cccc(C(C)(C)O)n1 [AZD1775] + CCc1c2c(nc3ccc(O)cc13)-c1cc3c(c(=O)n1C2)COC(=O)[C@]3(O)CC [SN-38] (first compound max 1 µM, partner max 0.3 µM) | -0.0066 | -0.0065 | 0.0008 | -0.0372 | -0.0893 | -0.0514 | 0.0025 | 0.0117 | -0.055 | -0.0499 | -0.0402 | -0.0887 | 0.0378 | -0.0037 | -0.0903 | 0.0659 | 1 | 0.87 | 0.927 | 0.997
2 | N#Cc1cnc(Nc2cc(NC[C@H]3CNCCO3)c(C(F)(F)F)cn2)cn1 [SRA737] + O=c1[nH]cc(F)c(=O)[nH]1 [5-Fluorouracil] (first compound max 10 µM, 7x7, partner max 20 µM) |  | -0.0252 | -0.0169 | -0.0358 | -0.0689 | -0.0626 | -0.0171 | 0.006 | -0.0569 | 0.0184 | -0.0009 | 0.0356 | -0.0501 | 0.0471 | 0.0243 | -0.0279 | 1 | 0.252 | 0.748 | 0.915
3 | CS(=O)(=O)CCNCc1ccc(-c2ccc3ncnc(Nc4ccc(OCc5cccc(F)c5)c(Cl)c4)c3c2)o1 [Lapatinib] + Cn1cnc2c(F)c(Nc3ccc(Br)cc3Cl)c(C(=O)NOCCO)cc21 [Selumetinib] (first compound max 10 µM, 7x7, partner max 10 µM) | -0.0171 | -0.0089 | -0.0348 | -0.0646 | -0.0778 | -0.11 | -0.0418 | -0.0294 | -0.102 | -0.0544 | 0.0661 | -0.0363 | -0.0081 | 0.0066 | -0.0095 | -0.0505 | 0.99 | 0.274 | 0.748 | 0.601
4 | Cc1nc(-c2cn3c(n2)-c2ccc(-c4cnn(C(C)(C)C(N)=O)c4)cc2OCC3)n(C(C)C)n1 [Taselisib] + O=C(Nc1ccc2[nH]nc(-c3ccncc3)c2c1)[C@@H]1CCN(CC(=O)N2CCN(c3ccc(-c4ncccn4)cc3)CC2)C1 [SCH772984] (first compound max 10 µM, 7x7, partner max 5 µM) | 0.0219 | 0.029 | -0.0307 | 0.0543 | 0.0587 | -0.0116 | 0.103 | 0.0779 | 0.0699 | 0.0797 | 0.1 | 0.102 | 0.0798 | 0.0465 | -0.0332 | -0.0514 | 0.985 | 0.839 | 0.946 | 0.934
5 | O=C(c1cc(Cc2n[nH]c(=O)c3ccccc23)ccc1F)N1CCN(C(=O)C2CC2)CC1 [Olaparib] + CN(CC[C@H](CSC1=CC=CC=C1)NC2=C(C=C(C=C2)S(=O)(=O)NC(=O)C3=CC=C(C=C3)N4CCC(CC4)[C@H](C5=CC=CC=C5C6=CC=C(C=C6)Cl)O)S(=O)(=O)C(F)(F)F)CCO [AZD4320] (first compound max 10 µM, 7x7, partner max 1 µM) | -0.0598 | -0.0172 | -0.107 | -0.0506 | -0.0428 | 0.0362 | -0.018 | 0.0334 | -0.0979 | -0.0224 | -0.0431 | 0.0835 | -0.0407 | -0.017 | 0.0012 | -0.0869 | 0.268 | 0.598 | 0.21 | 0.463
6 | N#Cc1cnc(Nc2cc(NC[C@H]3CNCCO3)c(C(F)(F)F)cn2)cn1 [SRA737] + C=CCn1c(=O)c2cnc(Nc3ccc(N4CCN(C)CC4)cc3)nc2n1-c1cccc(C(C)(C)O)n1 [AZD1775] (first compound max 10 µM, partner max 1 µM) | 0.0422 | 0.0943 | 0.0282 | -0.0475 | -0.0475 | 0.0199 | 0.0225 | 0.106 | 0.0717 | 0.0375 | 0.0488 | 0.162 | 0.0124 | 0.0293 | 0.0812 | -0.0377 | 1 | 0.566 | 0.642 | 0.986
7 | CN(CCO)CC[C@H](CSc1ccccc1)Nc1ccc(S(=O)(=O)NC(=O)c2ccc(N3CCC([C@@H](O)c4ccccc4-c4ccc(Cl)cc4)CC3)cc2)cc1S(=O)(=O)C(F)(F)F [AZD4320] + CS(=O)(=O)CCNCc1ccc(-c2ccc3ncnc(Nc4ccc(OCc5cccc(F)c5)c(Cl)c4)c3c2)o1 [Lapatinib] (first compound max 1 µM, 7x7, partner max 10 µM) | -0.0042 | 0.0057 | 0.0367 | -0.0252 | -0.0888 | 0.0902 | -0.0137 | 0.0503 | 0.106 | -0.0405 | 0.0202 | 0.0721 | -0.0121 | -0.0026 | -0.0829 | 0.0281 | 0.985 | 0.962 | 0.267 | 0.575
8 | C[C@@H]1COCCN1c1cc(C2([S@](C)(=N)=O)CC2)nc(-c2ccnc3[nH]ccc23)n1 [AZD6738] + C1CC(C1)(C(=O)[O-])C(=O)[O-].N.N.[Pt+2] [Carboplatin] (first compound max 10 µM, 7x7, partner max 10 µM) | -0.0073 | -0.0265 | -0.0502 | -0.0366 | -0.104 | -0.0444 | -0.0422 | -0.051 | -0.0369 | -0.0278 | -0.0443 | 0.0175 | -0.0615 | -0.0835 | -0.0517 | -0.0806 | 1 | 0.302 | 0.435 | 0.875
9 | C[C@@H](Oc1cc(-c2cnn(C3CCNCC3)c2)cnc1N)c1c(Cl)ccc(F)c1Cl [Crizotinib] + Cn1cnc2c(F)c(Nc3ccc(Br)cc3Cl)c(C(=O)NOCCO)cc21 [Selumetinib] (first compound max 10 µM, 7x7, partner max 10 µM) | -0.039 | -0.0264 | -0.0311 | -0.0849 | -0.0192 | -0.0665 | -0.0267 | -0.0463 | -0.0302 | 0.0373 | -0.0089 | -0.0309 | 0.0181 | -0.0212 | -0.0705 | -0.0898 | 0.975 | 0.28 | 0.963 | 0.764
10 | C[C@@H](Nc1cc(F)cc(F)c1)c1cc(C(=O)N(C)C)cc2c(=O)cc(N3CCOCC3)oc12 [AZD8186] + C1CN(CCC1(C(=O)N[C@@H](CCO)C2=CC=C(C=C2)Cl)N)C3=NC=NC4=C3C=CN4 [AZD5363] (first compound max 10 µM, 7x7, partner max 10 µM) | -0.0335 | -0.0271 | -0.0703 | -0.0371 | -0.038 | -0.0305 | 0.0003 | -0.0756 | -0.0719 | -0.0065 | 0.0062 | -0.023 | -0.0448 | 0.0225 | -0.0137 | -0.0543 | 0.603 | 0.546 | 0.357 | 0.538
11 | N#Cc1cnc(Nc2cc(NC[C@H]3CNCCO3)c(C(F)(F)F)cn2)cn1 [SRA737] + Nc1ccn([C@@H]2O[C@H](CO)[C@@H](O)C2(F)F)c(=O)n1 [Gemcitabine] (first compound max 10 µM, 7x7, partner max 0.3 µM) | 0.0092 | 0.0564 | 0.0486 | 0.0485 | -0.0613 | 0.0372 | 0.14 | 0.0238 | -0.0588 | 0.0721 | 0.138 | 0.0113 | 0.118 | 0.0222 | -0.0377 | -0.022 | 1 | 0.815 | 0.853 | 0.947
12 | O=C(c1cc(Cc2n[nH]c(=O)c3ccccc23)ccc1F)N1CCN(C(=O)C2CC2)CC1 [Olaparib] + Cc1c2c(nn1C)CSCc1cc(n(C)n1)CSc1cc(c3ccccc3c1)OCCCc1c(C(=O)O)n(C)c3c-2c(Cl)ccc13 [AZD5991] (first compound max 10 µM, 7x7, partner max 1 µM) | -0.0543 | 0.0101 | -0.0434 | -0.0851 | -0.0368 | -0.0407 | -0.0462 | 0.0251 | -0.0646 | -0.0506 | -0.0412 | 0.0318 | -0.0443 | -0.0003 | -0.0065 | -0.0467 | 1 | 0.181 | 0.214 | 0.46
13 | N#Cc1cnc(Nc2cc(NC[C@H]3CNCCO3)c(C(F)(F)F)cn2)cn1 [SRA737] + CCc1c2c(nc3ccc(O)cc13)-c1cc3c(c(=O)n1C2)COC(=O)[C@]3(O)CC [SN-38] (first compound max 10 µM, 7x7, partner max 0.3 µM) | 0.026 | 0.0294 | -0.0108 | -0.0136 | 0.0226 | -0.114 | 0.0737 | 0.0183 | -0.0769 | -0.0149 | -0.0427 | -0.0324 | 0.0914 | -0.0174 | -0.0406 | 0.0052 | 1 | 0.88 | 0.908 | 0.971
14 | C[C@@H](Oc1cc(-c2cnn(C3CCNCC3)c2)cnc1N)c1c(Cl)ccc(F)c1Cl [Crizotinib] + CC1=C(C(=CC=C1)Cl)NC(=O)C2=CN=C(S2)NC3=CC(=NC(=N3)C)N4CCN(CC4)CCO [Dasatinib] (first compound max 10 µM, 7x7, partner max 2 µM) | -0.0005 | 0.0093 | -0.0152 | -0.0626 | -0.048 | -0.0563 | -0.0108 | 0 | 0.0041 | -0.0469 | -0.0081 | -0.0153 | 0.0179 | 0.0661 | -0.0426 | 0.0208 | 1 | 0.661 | 0.777 | 0.886
